Measurements: ChEMBL document CHEMBL1201862, “PubChem BioAssay data set” (2004)
The source made the active and inactive calls.

Tests used:
[1] = tested on: Staphylococcus aureus; experiment: Inhibitors of Bacterial Quorum Sensing Structure Activity Relationship (SAR) Analysis: Dose Response Assay. [Related pubchem assays: 700, 527 ]; type: functional, organism-based
[2] = target: Lysosomal acid glucosylceramidase (Homo sapiens, UniProt P04062); experiment: Dose response cell-based high throughput screening assay to identify enhancers of beta-glucosidase activity. [Related pubchem assays: 784 ]; type: functional
[3] = cells; type: functional, cell-based
[4] = cells; type: functional, cell-based; remark: listed apart in the source
[5] = target: T1, Bcl-2-like protein 10 (Homo sapiens, UniProt Q9HD36); experiment: Concentration-response of Bcl-B inhibitors by biochemical FP with TR3 (AID 1243); type: functional
T1 sequence (Q9HD36 whole entry): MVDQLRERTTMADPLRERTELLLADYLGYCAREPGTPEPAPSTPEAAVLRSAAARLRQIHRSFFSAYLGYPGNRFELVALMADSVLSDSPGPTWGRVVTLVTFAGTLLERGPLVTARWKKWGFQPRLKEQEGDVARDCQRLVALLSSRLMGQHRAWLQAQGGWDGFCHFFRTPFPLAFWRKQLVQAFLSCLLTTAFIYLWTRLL

[6] = luciferase reporter signal suppression in cells – H4 neuroglioma cells, luminescence, dose response (AID 1990); type: functional, cell-based
[7] = target: T2, Neuropeptide Y receptor type 1 (Homo sapiens, UniProt P25929); type: functional;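 for IC50: HEK293 cells with a CNG channel challenged with NPY then isoproterenol; potency as antagonist that reverses NPY suppression of cAMP signal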
[8] = Luminescence Cell-Based Dose Response HTS to Identify Inhibitors of 5'UTR Stem-Loop Driven Prion Protein mRNA Translation in H4 Neuroglioblastoma Cells. [Related pubchem assays: 1827 (Project Summary), 1813 (Primary HTS)]; type: functional
[9] = alpha-synuclein stem-loop luciferase translation blockers – H4 neuroglioma cells, luminescence, confirmation (AID 1988); type: functional, cell-based
[10] = target: T3, Neuropeptide Y receptor type 2 (Homo sapiens, UniProt P49146); type: functional, cell-based;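 for IC50: HEK293 cells expressing the receptor and a CNG channel; stimulus was NPY near EC95 followed by isoproterenol to raise cAMP; antagonist potency measured as restoring cAMP signal that NPY suppresses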
[11] = target: Photoreceptor-specific nuclear receptor (Homo sapiens, UniProt Q9Y5X4); type: functional;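 note: potency for compounds that break the NR2E3 corepressor complex and count as activators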
[12] = target: Peroxisome proliferator-activated receptor gamma/Nuclear receptor corepressor 2 (Homo sapiens, UniProt P37231+Q9Y618); type: functional
[13] = decrease of insulin promoter-GFP reporter – imaging, high-content screening, mouse beta cells (AID 1628); type: functional; conditions: MIN6
[14] = MIN6 cell viability loss – mouse insulinoma, cytotoxicity control, dose response (AID 2122); type: functional;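 note: confirmatory high-throughput counterscreen run to flag cytotoxic compounds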
[15] = target: Large T antigen (Simian virus 40, UniProt P03070); type: functional, Betapolyomavirus macacae;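 note: Confirmatory-stage PubChem screen for compounds that inhibit SV40 T antigen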
[16] = target: T4, Mannose-6-phosphate isomerase (Homo sapiens, UniProt P34949); experiment: MPI enzyme activity inhibition – biochemical, fluorescence intensity, coupled assay, primary screen (AID 1209)
T4 sequence (P34949 whole entry): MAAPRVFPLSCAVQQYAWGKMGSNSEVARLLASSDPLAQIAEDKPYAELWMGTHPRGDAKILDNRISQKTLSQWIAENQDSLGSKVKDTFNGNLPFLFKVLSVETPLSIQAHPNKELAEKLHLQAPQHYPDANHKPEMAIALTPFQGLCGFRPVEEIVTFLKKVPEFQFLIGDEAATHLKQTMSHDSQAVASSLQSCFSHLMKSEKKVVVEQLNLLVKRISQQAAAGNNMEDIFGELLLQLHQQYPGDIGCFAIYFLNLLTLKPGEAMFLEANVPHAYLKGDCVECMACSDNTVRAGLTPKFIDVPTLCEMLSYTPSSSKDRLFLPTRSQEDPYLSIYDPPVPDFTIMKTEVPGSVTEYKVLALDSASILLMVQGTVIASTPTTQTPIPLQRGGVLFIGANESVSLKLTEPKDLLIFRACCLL

[17] = tested on: HEK293; experiment: Fluorescence-based counterscreen for potentiators or agonists of NPY-Y2: cell-based high-throughput dose response assay to identify inhibitors of cyclic nucleotide gated ion channel (CNGC) activity. In this assay, the parental HEK293 cell line transfected with a cyclic-nucleotide gated ion channel (CNGC)-based cAMP sensor is used to measure inhibition of isoproterenol-induced CNGC activity by test compound.; type: functional; conditions: Homo sapiens
[18] = target: T3, Neuropeptide Y receptor type 2; experiment: Fluorescence-based cell-based high-throughput dose response assay for agonists of NPY-Y2. [Related pubchem assays: 1703 (Screening assay (CNGC inhibitors).), 1359 (Screening assay (NPY-Y2 potentiators or agonists).), 1304 (Screening assay (NPY-Y1 potentiators or agonists).), 1710 (Screening assay (NPY-Y2 agonists).), 1791 (Summary AID.)]; type: functional
[19] = target: T2, Neuropeptide Y receptor type 1; experiment: Fluorescence-based counterscreen for agonists of NPY-Y2: cell-based high-throughput dose response assay for agonists of NPY-Y1.; type: functional
[20] = target: Tumor necrosis factor (Homo sapiens, UniProt P01375); experiment: analog potency on TNFa NF-kB signaling – cell-based, revised, SAR follow-up (AID 2337); type: functional
[21] = target: T5, Nucleotide-binding oligomerization domain-containing protein 1 (Homo sapiens, UniProt Q9Y239); experiment: blockers of NOD1 pathway activity – revised, SAR follow-up (AID 2333); type: functional
T5 sequence (Q9Y239 whole entry): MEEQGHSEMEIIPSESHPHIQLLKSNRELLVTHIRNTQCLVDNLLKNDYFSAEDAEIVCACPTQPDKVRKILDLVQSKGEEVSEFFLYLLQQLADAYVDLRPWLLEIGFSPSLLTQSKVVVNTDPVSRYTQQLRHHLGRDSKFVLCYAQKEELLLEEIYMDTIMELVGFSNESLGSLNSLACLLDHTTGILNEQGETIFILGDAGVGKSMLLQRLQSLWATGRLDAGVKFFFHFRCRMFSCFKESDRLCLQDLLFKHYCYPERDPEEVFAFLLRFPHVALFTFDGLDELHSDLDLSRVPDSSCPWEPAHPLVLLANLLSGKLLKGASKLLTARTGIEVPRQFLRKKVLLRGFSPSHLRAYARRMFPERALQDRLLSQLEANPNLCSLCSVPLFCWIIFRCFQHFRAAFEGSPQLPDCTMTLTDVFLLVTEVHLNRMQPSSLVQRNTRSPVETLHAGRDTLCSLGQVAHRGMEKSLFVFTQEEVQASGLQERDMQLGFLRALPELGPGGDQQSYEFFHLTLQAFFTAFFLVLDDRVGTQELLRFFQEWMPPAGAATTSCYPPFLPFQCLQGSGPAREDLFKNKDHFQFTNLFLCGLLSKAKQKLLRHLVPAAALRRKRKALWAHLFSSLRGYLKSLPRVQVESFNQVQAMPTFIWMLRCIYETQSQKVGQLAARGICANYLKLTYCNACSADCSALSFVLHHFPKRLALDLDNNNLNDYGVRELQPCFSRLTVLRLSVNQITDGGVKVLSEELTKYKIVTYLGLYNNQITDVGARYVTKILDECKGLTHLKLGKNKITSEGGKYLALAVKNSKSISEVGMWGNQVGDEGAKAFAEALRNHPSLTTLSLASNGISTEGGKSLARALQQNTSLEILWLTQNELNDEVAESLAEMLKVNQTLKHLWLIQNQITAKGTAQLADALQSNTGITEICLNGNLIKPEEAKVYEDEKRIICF

[22] = tested on: INS1; experiment: INS-1E survival protection against cytokine death – cell-based, luminescence, retest, dose response (AID 449756); type: functional; conditions: Rattus norvegicus;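 note: cell death triggered by IL-1 beta plus TNF-alpha plus IFN-gamma mixture; protective hits raise ATP signal compared with cytokine alone wells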
[23] = tested on: Vero; experiment: cells; type: functional; conditions: Chlorocebus sabaeus
[24] = tested on: HEK293; experiment: cells; conditions: Homo sapiens
[25] = target: Transitional endoplasmic reticulum ATPase (Homo sapiens, UniProt P55072, C522A); experiment: C522A mutant p97 ATPase inhibitors, dose response, counter-screen for p97 inhibitor project, biochemical, luminescence (AID 1544)
[26] = target: Transitional endoplasmic reticulum ATPase (Homo sapiens, UniProt P55072); experiment: p97 ATPase inhibitors, dose response, biochemical (AID 1534)
[27] = target: G2/mitotic-specific cyclin-B1 (Homo sapiens, UniProt P14635); experiment: Counterscreen assay for inhibitors of Wee1 degradation: dose response cell-based assay to identify inhibitors of cyclin B degradation. [Related pubchem assays: 1410, 1321 ]; type: functional
[28] = target: Wee1-like protein kinase (Homo sapiens, UniProt P30291); experiment: Dose Response Cell-based Assay for Inhibitors of Wee1 Degradation. [Related pubchem assays: 1410, 1321 ]; type: functional
[29] = HPDE-C7 pancreatic duct cell viability loss – fluorescence, HTS (AID 430); type: functional, cell-based; conditions: Homo sapiens
[30] = microbe, parasite or virus in culture; type: functional; conditions: Mycobacterium tuberculosis
[31] = viability loss of HPDE-C7K cells – cell-based, fluorescence, HTS, primary screen (AID 431); type: functional; conditions: Homo sapiens
[32] = viability of PTEN-deleted HCT116 cells – cell-based, HCT116 PTEN knockout, dose response (AID 1047); type: functional;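 note: HCT116 colon tumor cells with PTEN knocked out; cells exposed to compound for 60 hours before readout; potency for loss of cell viability measured by luminescence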
[33] = target: T6, Calpain-2 catalytic subunit (Sus scrofa, UniProt P43367); experiment: m-calpain protease blockers, concentration series – biochemical, fluorogenic peptide substrate, dose response (AID 1420); type: functional
T6 sequence (P43367 whole entry): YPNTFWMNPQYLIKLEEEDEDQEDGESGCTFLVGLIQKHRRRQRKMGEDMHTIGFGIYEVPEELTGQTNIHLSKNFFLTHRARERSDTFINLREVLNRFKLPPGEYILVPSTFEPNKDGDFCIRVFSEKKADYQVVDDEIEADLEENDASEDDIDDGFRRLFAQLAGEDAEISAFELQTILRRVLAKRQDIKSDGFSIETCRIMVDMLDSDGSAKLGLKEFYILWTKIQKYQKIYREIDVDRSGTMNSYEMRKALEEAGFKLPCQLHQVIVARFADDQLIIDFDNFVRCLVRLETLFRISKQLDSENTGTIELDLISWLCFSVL

[34] = viability of HCT116 lacking mutant beta-catenin – cell-based, human colon tumor, dose response (AID 1045); type: functional;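 note: HCT116 colon tumor cells with beta catenin knocked out; cells exposed to compound for 60 hours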
[35] = THP-1 cell cytotoxicity, dose response, cytotoxicity control for non-replicating M. tuberculosis project (AID 489025); type: functional
[36] = HepG2 cell cytotoxicity, dose response, cytotoxicity control for non-replicating M. tuberculosis project (AID 489018); type: functional; conditions: Mycobacterium tuberculosis
[37] = Vero E6 cell cytotoxicity, dose response, cytotoxicity control for non-replicating M. tuberculosis project, secondary assay (AID 492998); type: functional, VeroE6; conditions: Vero C1008
[38] = cells; type: functional
[39] = target: T7, Eukaryotic translation initiation factor 2-alpha kinase 3 (Homo sapiens, UniProt Q9NZJ5); experiment: Dose response cell-based high-throughput screening assay to measure PERK inhibition. [Related pubchem assays: 1416 ]; type: functional
[40] = target: T7, Eukaryotic translation initiation factor 2-alpha kinase 3; experiment: Counterscreen assay for PERK inhibitors: Dose response cell-based high throughput screening assay to measure inhibition of PERK at 6 hours. [Related pubchem assays: 1522, 1416 ]; type: functional

T2 sequence (P25929 whole entry): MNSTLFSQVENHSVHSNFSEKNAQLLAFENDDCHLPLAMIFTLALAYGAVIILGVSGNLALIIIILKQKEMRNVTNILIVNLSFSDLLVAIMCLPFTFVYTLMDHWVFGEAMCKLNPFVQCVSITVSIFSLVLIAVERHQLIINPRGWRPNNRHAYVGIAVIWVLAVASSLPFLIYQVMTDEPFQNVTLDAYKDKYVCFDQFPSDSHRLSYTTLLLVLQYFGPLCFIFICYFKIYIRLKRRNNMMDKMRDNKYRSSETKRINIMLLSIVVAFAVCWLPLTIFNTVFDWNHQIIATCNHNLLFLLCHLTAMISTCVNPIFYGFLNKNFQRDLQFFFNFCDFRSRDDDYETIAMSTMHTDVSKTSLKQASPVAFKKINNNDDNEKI
T3 sequence (P49146 whole entry): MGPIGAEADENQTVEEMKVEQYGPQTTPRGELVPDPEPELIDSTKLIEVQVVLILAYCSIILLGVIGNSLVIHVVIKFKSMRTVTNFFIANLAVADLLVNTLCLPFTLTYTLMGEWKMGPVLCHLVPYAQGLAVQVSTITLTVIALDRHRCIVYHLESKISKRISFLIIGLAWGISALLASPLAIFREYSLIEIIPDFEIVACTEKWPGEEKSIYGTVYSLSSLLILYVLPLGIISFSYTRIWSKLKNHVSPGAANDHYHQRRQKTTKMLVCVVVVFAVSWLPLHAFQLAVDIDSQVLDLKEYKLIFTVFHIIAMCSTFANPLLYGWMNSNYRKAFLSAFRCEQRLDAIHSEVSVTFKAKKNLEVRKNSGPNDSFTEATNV
T7 sequence (Q9NZJ5 whole entry): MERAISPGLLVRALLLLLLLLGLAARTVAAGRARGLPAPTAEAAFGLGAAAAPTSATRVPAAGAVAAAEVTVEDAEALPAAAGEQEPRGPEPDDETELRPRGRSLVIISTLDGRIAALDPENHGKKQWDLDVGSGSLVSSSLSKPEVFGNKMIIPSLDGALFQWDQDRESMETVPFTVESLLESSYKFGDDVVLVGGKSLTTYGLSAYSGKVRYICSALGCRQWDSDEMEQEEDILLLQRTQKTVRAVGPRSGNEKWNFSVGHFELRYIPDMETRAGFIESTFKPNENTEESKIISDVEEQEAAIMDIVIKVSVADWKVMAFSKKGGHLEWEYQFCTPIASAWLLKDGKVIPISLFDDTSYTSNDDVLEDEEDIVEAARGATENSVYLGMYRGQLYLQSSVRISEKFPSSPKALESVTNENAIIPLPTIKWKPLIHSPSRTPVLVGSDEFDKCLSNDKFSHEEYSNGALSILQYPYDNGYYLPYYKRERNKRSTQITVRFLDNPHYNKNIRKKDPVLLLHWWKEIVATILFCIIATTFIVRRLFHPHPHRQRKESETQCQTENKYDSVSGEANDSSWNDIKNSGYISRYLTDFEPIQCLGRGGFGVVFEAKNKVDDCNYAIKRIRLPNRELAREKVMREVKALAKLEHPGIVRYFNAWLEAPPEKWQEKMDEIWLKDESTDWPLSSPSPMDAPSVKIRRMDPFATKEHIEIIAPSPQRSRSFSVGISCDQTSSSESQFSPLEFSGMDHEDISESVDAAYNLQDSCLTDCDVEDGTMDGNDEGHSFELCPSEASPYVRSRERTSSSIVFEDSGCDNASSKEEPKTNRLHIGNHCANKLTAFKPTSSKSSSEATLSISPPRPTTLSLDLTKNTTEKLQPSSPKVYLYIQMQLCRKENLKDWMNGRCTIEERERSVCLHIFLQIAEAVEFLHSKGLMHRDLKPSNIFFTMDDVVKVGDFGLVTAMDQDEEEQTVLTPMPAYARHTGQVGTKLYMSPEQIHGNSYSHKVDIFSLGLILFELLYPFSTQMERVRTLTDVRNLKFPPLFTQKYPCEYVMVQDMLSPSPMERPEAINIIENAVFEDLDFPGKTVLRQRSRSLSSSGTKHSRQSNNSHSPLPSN
Chain of Transitional endoplasmic reticulum ATPase (Homo sapiens, UniProt P55072, C522A) (P55072 2-806 C522A limits assumed): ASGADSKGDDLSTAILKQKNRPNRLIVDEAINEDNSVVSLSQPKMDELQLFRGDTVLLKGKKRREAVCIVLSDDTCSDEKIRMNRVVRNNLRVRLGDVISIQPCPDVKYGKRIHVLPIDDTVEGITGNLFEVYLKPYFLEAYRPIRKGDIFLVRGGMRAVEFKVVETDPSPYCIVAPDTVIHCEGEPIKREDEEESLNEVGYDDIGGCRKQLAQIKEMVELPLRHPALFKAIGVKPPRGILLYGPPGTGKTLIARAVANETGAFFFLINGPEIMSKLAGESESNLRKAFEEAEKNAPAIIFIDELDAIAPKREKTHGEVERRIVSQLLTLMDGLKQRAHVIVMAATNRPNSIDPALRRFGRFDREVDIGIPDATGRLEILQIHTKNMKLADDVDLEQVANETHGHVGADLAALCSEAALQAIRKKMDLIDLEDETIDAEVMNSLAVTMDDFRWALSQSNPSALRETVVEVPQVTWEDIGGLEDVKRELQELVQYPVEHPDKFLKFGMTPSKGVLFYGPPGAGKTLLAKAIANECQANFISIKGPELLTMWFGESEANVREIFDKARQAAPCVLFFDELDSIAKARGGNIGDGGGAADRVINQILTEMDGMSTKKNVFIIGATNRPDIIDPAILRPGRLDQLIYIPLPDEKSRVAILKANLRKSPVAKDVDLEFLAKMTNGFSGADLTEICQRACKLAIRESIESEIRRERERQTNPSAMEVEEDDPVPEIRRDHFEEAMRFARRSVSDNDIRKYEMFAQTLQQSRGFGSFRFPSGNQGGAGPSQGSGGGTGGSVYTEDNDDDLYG
Chain of Tumor necrosis factor (P01375 whole entry, the tested form may be a part): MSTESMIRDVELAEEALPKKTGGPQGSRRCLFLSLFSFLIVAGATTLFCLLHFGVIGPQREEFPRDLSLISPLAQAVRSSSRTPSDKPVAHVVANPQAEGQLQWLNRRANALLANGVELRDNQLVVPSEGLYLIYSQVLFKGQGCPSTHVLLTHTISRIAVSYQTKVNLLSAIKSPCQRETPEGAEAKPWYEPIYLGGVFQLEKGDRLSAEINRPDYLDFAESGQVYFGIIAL
Chain of Photoreceptor-specific nuclear receptor (Q9Y5X4 whole entry): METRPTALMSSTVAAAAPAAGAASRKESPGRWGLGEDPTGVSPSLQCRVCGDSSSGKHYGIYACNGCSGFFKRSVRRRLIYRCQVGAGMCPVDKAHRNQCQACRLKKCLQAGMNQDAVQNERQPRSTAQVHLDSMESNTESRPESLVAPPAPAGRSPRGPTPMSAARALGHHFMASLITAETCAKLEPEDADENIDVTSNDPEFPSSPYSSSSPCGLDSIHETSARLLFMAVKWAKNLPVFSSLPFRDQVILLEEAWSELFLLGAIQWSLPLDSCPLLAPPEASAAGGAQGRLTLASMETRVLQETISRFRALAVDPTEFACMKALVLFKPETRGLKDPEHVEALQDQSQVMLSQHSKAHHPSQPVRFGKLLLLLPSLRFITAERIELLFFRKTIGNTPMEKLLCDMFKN
Chain of Wee1-like protein kinase (P30291 whole entry): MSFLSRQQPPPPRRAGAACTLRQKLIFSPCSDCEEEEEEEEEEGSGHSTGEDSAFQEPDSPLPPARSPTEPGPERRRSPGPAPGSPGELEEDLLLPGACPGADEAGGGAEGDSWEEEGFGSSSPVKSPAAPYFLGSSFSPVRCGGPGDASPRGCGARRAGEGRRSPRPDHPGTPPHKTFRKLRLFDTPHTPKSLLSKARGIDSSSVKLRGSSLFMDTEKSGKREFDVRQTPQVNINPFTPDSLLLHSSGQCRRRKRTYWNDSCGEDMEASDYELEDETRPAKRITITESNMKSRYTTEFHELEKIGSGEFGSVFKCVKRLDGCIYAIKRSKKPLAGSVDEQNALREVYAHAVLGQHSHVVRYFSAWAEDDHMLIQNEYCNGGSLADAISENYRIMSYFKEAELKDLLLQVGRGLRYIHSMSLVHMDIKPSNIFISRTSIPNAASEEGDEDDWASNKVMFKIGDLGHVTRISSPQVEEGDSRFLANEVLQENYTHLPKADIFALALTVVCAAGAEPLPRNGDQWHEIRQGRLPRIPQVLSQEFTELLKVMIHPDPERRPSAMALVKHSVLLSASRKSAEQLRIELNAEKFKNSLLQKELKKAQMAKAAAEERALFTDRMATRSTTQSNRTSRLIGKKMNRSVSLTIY
Chain of Large T antigen (P03070 whole entry): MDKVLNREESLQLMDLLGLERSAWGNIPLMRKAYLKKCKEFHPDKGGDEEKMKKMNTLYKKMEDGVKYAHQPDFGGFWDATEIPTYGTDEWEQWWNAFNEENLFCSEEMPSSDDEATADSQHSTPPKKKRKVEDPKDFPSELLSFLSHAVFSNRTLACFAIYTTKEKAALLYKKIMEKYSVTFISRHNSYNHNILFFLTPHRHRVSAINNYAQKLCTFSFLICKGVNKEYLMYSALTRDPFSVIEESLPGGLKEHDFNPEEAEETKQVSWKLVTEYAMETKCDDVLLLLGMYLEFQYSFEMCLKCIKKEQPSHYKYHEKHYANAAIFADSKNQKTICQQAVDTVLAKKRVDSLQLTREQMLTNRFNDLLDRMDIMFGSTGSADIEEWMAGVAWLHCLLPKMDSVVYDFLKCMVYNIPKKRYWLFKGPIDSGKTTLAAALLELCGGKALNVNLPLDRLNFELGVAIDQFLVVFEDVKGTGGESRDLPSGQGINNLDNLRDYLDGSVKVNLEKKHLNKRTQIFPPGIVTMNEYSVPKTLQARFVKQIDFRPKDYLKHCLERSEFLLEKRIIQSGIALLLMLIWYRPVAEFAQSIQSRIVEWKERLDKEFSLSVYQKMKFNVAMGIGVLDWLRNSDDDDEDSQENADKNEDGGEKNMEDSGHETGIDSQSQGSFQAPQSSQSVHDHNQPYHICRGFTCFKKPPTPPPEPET

Question: For CCc1ccc(S(=O)(=O)c2nnn3c2nc(O)c2ccccc23)cc1, which IC50 [1] is on record?
Answer: 0.244 µM (active)

Question: For COc1ccc(CNC(=O)CN(CC2CCCO2)C(=O)CNS(=O)(=O)c2ccc(C)cc2)cc1 (stereo not drawn), which EC50 [2] is on record?
Answer: > 50 µM (not active)

Question: And the EC50 [3]?
Answer: > 350 µM (not active)

Question: What about the EC50 [4] of the same compound?
Answer: > 350 µM (not active)

Question: For COc1ccc(Nc2ccc(N)cc2)cc1, which EC50 [5] is on record?
Answer: 7.22 µM (active)

Question: Which EC50 [6] does the source give for C/C=C(/C)C(=O)O[C@@H]1c2c(ccc3ccc(=O)oc23)O[C@@H]1C(C)(C)OC(=O)/C(C)=C\C here?
Answer: 15.2 µM (active)

Question: And the IC50 [7]?
Answer: 5.85 µM (active)

Question: And the EC50 [8]?
Answer: > 120 µM (not active)

Question: And the EC50 [9]?
Answer: > 120 µM (not active)

Question: What about the IC50 [10] of the same compound?
Answer: 5.06 µM (active)

Question: What does the source list for CC(C)Cc1c2c([nH]c(=S)c1C#N)CCCC2?
Answer: IC50 [11]: > 39.8 µM (not active); IC50 [12]: 6.27 µM (active)

Question: Which IC50 [13] does the source give for Cc1ccc(Nc2nc(-c3ccc(O)c(O)c3)cs2)nc1 here?
Answer: 6.26 µM (active)

Question: And the IC50 [14]?
Answer: 3.85 µM (active)

Question: What about the IC50 [15] of the same compound?
Answer: 12.3 µM (active)

Question: And the IC50 [16]?
Answer: 48.6 µM (active)

Question: What does the source list for O=C(Nc1cccc([N+](=O)[O-])c1)c1cc2ccccc2cc1O?
Answer: EC50 [17]: > 35.4 µM (not active); IC50 [13]: 2.73 µM (active); EC50 [18]: > 35.4 µM (not active); IC50 [14]: 2.72 µM (active); EC50 [19]: > 35.4 µM (not active); IC50 [20]: 2.2 µM (active); IC50 [21]: 1.48 µM (active); AC50 [22]: 3.67 µM (active); CC50 [23]: 3.95 µM (active); IC50 [24]: 11.8 µM (active)

Question: For Cc1ccc2[nH]cc(C(=O)CCl)c2c1, which IC50 [25] is on record?
Answer: > 50 µM (not active)

Question: What about the IC50 [26] of the same compound?
Answer: > 50 µM (not active)

Question: For [O-][n+]1onc2c3cc(-c4ccccc4)[nH]c3ccc21, which EC50 [27] is on record?
Answer: > 49.7 µM (not active)

Question: What about the EC50 [28] of the same compound?
Answer: > 1.84 µM (active)

Question: What about the EC50 [29] of the same compound?
Answer: 4.16 µM (active)

Question: What about the CC50 [30] of the same compound?
Answer: 1.47 µM (active)

Question: And the EC50 [31]?
Answer: 9.83 µM (active)

Question: What about the EC50 [32] of the same compound?
Answer: 0.65 µM (active)

Question: And the IC50 [33]?
Answer: 1.59 µM (not active)

Question: What about the EC50 [34] of the same compound?
Answer: 0.597 µM (active)

Question: What about the CC50 [35] of the same compound?
Answer: 1.57 µM (active)

Question: What about the CC50 [36] of the same compound?
Answer: 2.6 µM (active)

Question: And the CC50 [37]?
Answer: 1.27 µM (active)

Question: And the IC50 [38]?
Answer: 0.67 µM (active)

Question: And the AC50 [22]?
Answer: 2.52 µM (active)

Question: Which EC50 [39] does the source give for COc1ccc2nc(NC(=O)CSc3nnc(C)n3N)sc2c1 here?
Answer: > 55.7 µM (not active)

Question: And the EC50 [40]?
Answer: > 55.7 µM (not active)
